Test results published in patent US20220363673A1, “5-(Thiophen-2-YL)-1 H-Tetrazole Derivative as BCKDK Inhibitors Useful for Treating Various Diseases” (Pfizer Inc., priority 2019, published 2022).

Experiments:
[1] = tested on: Dahl salt sensitive male rats; assay: Heart Failure Rat Model, high salt diet; format: in vivo
Method: Dahl salt sensitive male rats (Charles River strain SS/JrHsdMcwiCrl) were fed control diet or 6% high salt diet (iD03121701-AIN-76a rodent diet with added 6% NaCl) for 21 weeks in total. At week 5, the high salt diet-fed rats were dosed PO with 100 mg/kg BT2 or vehicle once daily for the last 16 weeks of study. Echocardiography was performed at week 18 (myocardial performance index (MPI): control diet 0.567±0.034, high salt+vehicle 0.810±0.039, high salt+BT2 0.660±0.030; Isovolumic relaxation time (IVRT): control diet 23.154±0.60 ms, high salt+vehicle 36.507±2.20 ms, high salt+BT2 31.605±1.78 ms; Intraventricular septal thickness at diastole (IVDd): control 2.03±0.088 mm, high salt+vehicle 2.877±0.110 mm, high salt+BT2 2.489±0.089 mm). NT-pro-BNP (MSD K153JKD; control […], high salt+vehicle 1003.0±200.8 μg/mL, high salt+BT2 503.4±84.96 μg/mL), and proANP (MSD K153MBD; control 33.50±5.4 ng/mL, high salt 65.19±8.3 ng/mL, high salt+BT2 38.81±7.0 ng/mL) levels were measured in plasma using MSD assays at the terminal time point. Heart weights were measured at euthanasia and normalized to tibia length (heart/tibia control 0.033±0.001 g/mm; high salt+vehicle 0.042±0.001 g/mm, high salt+BT2 0.038±0.001 g/mm).

human BCKDK = target: T1, human BCKDK (Homo sapiens, UniProt O14874); assay: In Vitro FRET (TR-FRET) BCKDK activity assay, phosphorylation of BCKDHE1α-E2 fusion substrate; format: biochemical; settings: geometric mean, two significant figures; 15 μM ATP
T1 construct: human BCKDK (residues 31-412 of the protein pre-processing); 6xHis (N, cleaved yes); MBP (N, cleaved yes); TEV protease site (ENLYFQG) (N, cleaved yes); made in house; host or cells: BL21(DE3) E. coli, co-expressed with GroEL-GroES
Method: BCKDK protein was generated using a pET vector containing from N- to C-terminus: 6×His, MBP, a TEV protease site (ENLYFQG), a biotin acceptor peptide ([…]), and human BCKDK (residues 31-412 of the protein pre-processing). Protein was co-expressed with GroEL-GroES in BL21(DE3) E. coli in LB media, and protein production was induced with 0.5 mM IPTG and 0.5 mg/mL L-arabinose at an OD600 of 1 and grown for 16 h at 26° C. Bacteria were lysed using a Microfluidizer in 100 mM potassium phosphate pH 7.5, 500 mM NaCl, 0.1 mM EDTA, 1% Tween-20, 0.25% Triton X-100, 10% glycerol, 1 mM DTT, and protease inhibitors. MBP-tagged protein was purified by affinity chromatography using amylose resin, and MBP was removed from BCKDK by TEV protease incubation followed by gel filtration chromatography in 50 mM HEPES pH 7.5, 500 mM NaCl, 300 mM L-Arginine, 2 mM MgCl2, 1 mM DTT, and 10% glycerol.
A pET vector containing E. coli LplA was expressed in BL21(DE3) E. coli in LB media, and protein production was induced with 0.75 mM IPTG at an OD600 of 1 and grown for 16 h at 30° C. Bacteria were lysed using a Microfluidizer in 50 mM sodium phosphate buffer pH 7.5, 350 mM NaCl, 1.5 mM MgCl2, and 1 mM DTT. LplA protein was precipitated from clarified lysate with 1 M ammonium sulfate and further purified by gel filtration chromatography in 50 mM sodium phosphate pH 7.5, 350 mM NaCl, 1.5 mM MgCl2, 1 mM DTT, and 10% glycerol.
The BCKDHE1α-E2 fusion substrate was cloned into a pET vector and contained from N- to C-terminus: the lipoyl binding domain of E2 (residues 62-160 pre-processing), a TEV protease site (LENLYFQG), residues 331-345 (pre-processing) from E1α, and 6×His (Tso, S. C. et al., J Biol Chem 2014, 289 (30), 20583-20593). The fusion substrate was expressed in BL21(DE3) E. coli in LB media, and protein production was induced with 0.75 mM IPTG at an OD600 of 1 and grown for 16 h at 30° C. Bacteria were lysed using a Microfluidizer in 50 mM sodium phosphate pH 7.5, 350 mM NaCl, 10 mM imidazole, 10% glycerol, 1 mM DTT, and protease inhibitors. […] For lipoylation, fusion substrate was incubated with LplA at a 10:1 (substrate:LplA) ratio in 20 mM sodium phosphate pH 7.4, 6 mM MgCl2, 4 mM ATP, 2 mM DTT, 3 mM DL-6,8-thioctic acid at 37° C. The reaction was monitored using an Agilent 6530 Q-TOF coupled to an Agilent 1290 UPLC. The final lipoylated fusion substrate was purified by gel filtration chromatography in 50 mM HEPES pH 7.5, 350 mM NaCl, 1.5 mM MgCl2, 1 mM DTT, 10% glycerol.
BCKDK activity was monitored by phosphorylation of a HIS-tagged fusion BCKDHE1α-E2 substrate protein as described above and was detected using a time resolved-fluorescence resonance energy transfer (TR-FRET) assay system. Compounds were spotted into a 384 well plate, and purified human BCKDK protein was added to the plated compound. After incubation, the LBD-linker-E1 phosphorylation sequence was added in the presence of 15 μM ATP. The reaction was terminated with EDTA. Phosphorylated substrate was recognized by the addition of rabbit anti-E1 phospho Ser293 antibodies (Bethyl Laboratories—A304-672A), and the TR-FRET signal was developed by addition of anti-HIS donor molecules (Europium; Perkin Elmer—AD0205, AD0110, AD0111) and anti-Rabbit acceptor molecules (Ulight; Perkin Elmer—TRF502D, TRF502M, TRF502R). Recognition of phosphorylated E1 brought donor and acceptor molecules into close proximity, and excitation at 320 nm caused energy transfer from the Europium donor to the Ulight acceptor dye, which in turn generated light at 665 nm. Signal intensity was proportional to the level of BCKDK-mediated substrate phosphorylation. Reactions were normalized to zero percent effect with DMSO and one hundred percent effect with 600 μM Radicicol, a known BCKDK inhibitor. IC50 curves were generated using ABASE software (IDBS, Boston Mass.).

[2] = tested on: phosphorylation of S293 BCKDH; assay: Phospho BCKDHA AlphaLISA in human skeletal myocytes; format: cell-based; settings: 1 h, 60 minutes, maximal effect relative to BT2
Method: Prior to conducting the assay, BCKDH antibodies (Bethyl A303-790A) were biotinylated using the ChromaLink™ One-Shot Antibody Biotinylation Kit B-9007-009K and phospho Ser293 BCKDHA antibodies (Bethyl A304-672A) were directly conjugated to AlphaLISA Acceptor Beads (custom conjugation performed by Perkin Elmer's Lance/Delfia Custom Services, Boston Mass.). Human skeletal myocytes (Gibco A11440) were plated in a 384 well plate at a density of 7500 live cells/well and grown in skeletal muscle growth media containing the media supplement and chick embryo extract (Promocell C-23060 and C-23160, MP92850145). After overnight incubation, media was removed, and BCKDK inhibitors were added in assay media (growth media diluted 10-fold in PBS). After 60 minutes, the media was removed, the cells were washed with PBS and lysed in 10 μL of buffer (Cell Signaling #9803) containing 2 nM biotinylated total BCKDH antibodies. Samples were incubated for 60 minutes, and 5 μL of AlphaLISA acceptor beads conjugated with phospho-S293 BCKDH antibodies were added 1× Alpha buffer. […] Fluorescence was emitted when the phospho and total BCKDH antibodies were within proximity, signifying phosphorylation of S293 BCKDH. Fluorescence was monitored on the Envision plate reader. The zero percent effect was determined from DMSO treatment and the maximal effect was assessed relative to the BCKDK inhibitor BT2. […]

[3] = tested on: Mice fed 60% high fat diet; assay: Diabetic Animal Model: fasting glucose and oral glucose tolerance test; format: in vivo; settings: for fasting plasma glucose levels: mean±SEM, vehicle 185±18; for Area under the curve for the glucose tolerance test as percent of vehicle treated group: 1 g/kg dextrose, vehicle 100.0±7
Method: Mice fed 60% high fat diet (Research Diets 12492) were dosed PO with Example 1 for one day, fasted overnight, and blood glucose was measured with an alpha track glucometer. The animals were dosed again PO with Example 1 the next morning, and one hour later, blood glucose was measured again immediately using an alpha track glucometer (Zoetis, Parsippany, N.J.) to assess fasting glucose levels prior to oral gavage of 1 g/kg dextrose. Blood glucose was measured 15, 30, 60, and 120 minutes after the gavage, and the data were plotted and analyzed as area under the curve using GraphPad Prism 8.0 (GraphPad Software, La Jolla, Calif.). For animals that were dosed with vehicle or Example 1 as above, mean±SEM fasting plasma glucose levels were 185±18 (vehicle, n=7), 194±14 (3 mg/kg, n=9), 160±11 (10 mg/kg, n=10), 136±9 mg/dL (30 mg/kg, n=9). Area under the curve for the glucose tolerance test as percent of vehicle treated group was 100.0±7 (vehicle, n=7), 106±9 (3 mg/kg, n=9), 99±2 (10 mg/kg, n=10), 72±4 (30 mg/kg, n=9).

SMILES: O=C(O)c1sc2cc(Cl)ccc2c1Cl [BT2]
- Heart weight normalized to tibia length (heart/tibia) ([1]; at euthanasia, 100 mg/kg PO once daily, control 0.033±0.001, high salt+vehicle 0.042±0.001): 0.038±0.001 g/mm
- Intraventricular septal thickness at diastole (IVDd) ([1]; echocardiography week 18, 100 mg/kg PO once daily, control 2.03±0.088, high salt+vehicle 2.877±0.110): 2.489±0.089 mm
- myocardial performance index (MPI) ([1]; echocardiography week 18, 100 mg/kg PO once daily, control diet 0.567±0.034, high salt+vehicle 0.810±0.039): 0.660±0.030
- Isovolumic relaxation time (IVRT) ([1]; echocardiography week 18, 100 mg/kg PO once daily, control diet 23.154±0.60, high salt+vehicle 36.507±2.20): 31.605 ± 1.78 ms
- proANP level in plasma ([1]; terminal time point, 100 mg/kg PO once daily, control 33.50±5.4, high salt 65.19±8.3): 38.81 ± 7.0 ng/mL

SMILES: Cc1c(Br)csc1-c1nnn[nH]1 [Example 1, 5-(4-Bromo-3-methylthiophen-2-yl)-1H-tetrazole]
- IC50 (human BCKDK): 1.9 µM
- IC50 [2]: 18 ± 2.3 µM
- fasting plasma glucose levels ([3]; 3 mg/kg PO, n=9): 194 ± 14 mg/dL
- Area under the curve for the glucose tolerance test as percent of vehicle treated group ([3]; 3 mg/kg PO, n=9): 106±9% of vehicle treated group
- fasting plasma glucose levels ([3]; 10 mg/kg PO, n=10): 160 ± 11 mg/dL
- Area under the curve for the glucose tolerance test as percent of vehicle treated group ([3]; 10 mg/kg PO, n=10): 99±2% of vehicle treated group
- fasting plasma glucose levels ([3]; 30 mg/kg PO, n=9): 136 ± 9 mg/dL
- Area under the curve for the glucose tolerance test as percent of vehicle treated group ([3]; 30 mg/kg PO, n=9): 72±4% of vehicle treated group

SMILES: Cc1cc(Cl)sc1-c1nnn[nH]1 [Example 9, 5-(5-Chloro-3-methylthiophen-2-yl)-1H-tetrazole]
- IC50 (human BCKDK): 1.4 µM
- IC50 [2]: 11 ± 0.87 µM
